From PMC8318231, “Rate-of-Kill (RoK) assays to triage large compound sets for Chagas disease drug discovery: Application to GSK Chagas Box” (PLoS Neglected Tropical Diseases, 2021)

What was measured:
[1] = system: T. cruzi intracellular amastigotes in H9c2 cells; experiment: Rate-of-Kill (RoK) high-content imaging assay, amastigotes per cell (AM/CELL) and curve descriptors; format: cell-based, Trypanosoma cruzi; set-up: key to ME_24h / ME_48h / ME_72h: % reduction in parasite burden (cidal response); t50pct_MCC50 / t50pct_Cmax: unit not given here; settings: for ME_24h: 24h; for ME_48h: 48h; for ME_72h: 72h; for AM/CELL NORM: sheet figure 4 A; for t50%_Cmax / tlag_Cmax / t50pct_Cmax: at Cmax; for ME_24h (%): maximum effect at 24 h; for ME_24h (%) / ME_48h (%) / ME_72h (%): RoK assay; for ME_48h (%): maximum effect at 48 h; for ME_72h (%): maximum effect at 72 h
Procedure: For this high-content intracellular imaging assay, H9c2 cells were seeded in 225 cm^2 T- FLASK in DMEM with 10% FBS for 4 h to allow attachment. T. cruzi trypomastigotes, collected at days 5 to 8 after infection from LLC-MK2 parasite infected cultures, were allowed to swim out for 4 h at 37°C from a centrifuged pellet (1,600 x g / 10 min). Trypomastigotes were then collected and counted in a CASY Cell Counter using the 60 μm capillary. Trypomastigotes, in supplemented DMEM, were added to H9c2 cultures in a multiplicity of infection (MOI) of 8 and incubated for 18 h. Cells were washed once with PBS before incubation of the infected H9c2 monolayer with trypsin (Life-Technologies) to detach cells from the flask. Cells were counted in a CASY Cell Counter, using the 150 μm capillary, and their density set at 5 x 10^4 cells/mL in supplemented DMEM. Infected H9c2 were dispensed into 384-well plates at 50 μL per well using a Multidrop Combi dispenser. Control wells used to determine a 100% parasitic growth (full 6th column of each plate) were left untreated, whereas not infected cells were added in the control wells used as 0% parasite growth (or 100% parasite growth inhibition; full 18th column of each plate). The four plates corresponding to each RoK assay were predispensed for the same mother plate. […] Cultures were then fixed and stained with 50 μL per well of a PBS solution containing 4% formaldehyde and 2 μM DRAQ5 DNA dye (BioStatus, UK). Then plates were read in a PerkinElmer Opera Phenix using a 20x objective, 3 fields per well. DRAQ5 signal was detected using 640 nm excitation laser and a 690/50 nm emission detection filter. Automated image analysis was performed with a script developed on Acapella High Content Imaging and Analysis Software (PerkinElmer). Two outputs were provided for each sample well: (1) number of host cells nuclei to determine drug-related cytotoxicity (aka H9c2) and (2) number of amastigotes per cell as infection level measurement (aka AM/CELL). Each output is plotted as a time course for each compound at every concentration. This assay was adapted from Alonso-Padilla et al. and Peña et al..
To identify and classify the different compounds, the number of amastigotes per cell (AM/CELL) raw data obtained in rate of kill assay are normalised using the average of C1 (infected cells) at time 4 hours as 0% effect and the average of C2 (non-infected cells) for each time as 100% effect, according to the following Eq 1: %CIDALRESPONSE=100*[Avg_C14h-RawData]/[Avg_C14h-Avg_C2] (1)
• ME (Maximum Effect) is the maximum percentage of parasite burden reduction reached by any compound concentration. Compounds that decrease the initial parasite load will show a positive value of ME, whereas compounds that allow the progression of infection will render a negative ME value. […] It is calculated for the MCC50 (t50%_MCC50) and for the maximum concentration (t50%_Cmax). […] The value of this parameter is not either interpolated or extrapolated, and it refers to the first experimental time-course point at which a 50% of effect is reached or exceeded. • tlag defines the time elapsed for one particular concentration to reduce parasite burden between two consecutive points at any moment of the time course. It is calculated for the MCC50 (tlag_MCC50) and for the maximum concentration (tlag_Cmax). The value of this parameter is not either interpolated or extrapolated, and it refers to the first experimental time-course point of a positive slope in the normalised plot (i.e. %Cidal_Response). • Cmin_Tox (Minimal CytoToxic Concentration) is the lowest compound concentration that is reducing the number of host mammalian cells below 50% of initial cell density. Cytotoxic compounds may mislead a bona fide antiparasitic action.

TcCYP51 = settings: formerly reported; cited from earlier work
[2] = maximum percentage of parasite burden reduction reached by any concentration, 24 hours

Row | Structure (SMILES) | ME_24h ([1]; figure 5) | ME_48h ([1]; figure 5) | ME_72h ([1]; figure 5) | MCC50 ([1]; RoK curve descriptor) [µM] | MCCE ([1]; RoK curve descriptor) [µM] | AM/CELL NORM ([1]; Time 4) | AM/CELL NORM ([1]; Time 24) | AM/CELL NORM ([1]; Time 48) | AM/CELL NORM ([1]; Time 72) | t50%_Cmax [1] [h] | tlag_Cmax [1] [h] | t50pct_Cmax ([1]; figure 5) | tlag_Cmax ([1]; figure 5) | t50pct_MCC50 ([1]; at MCC50, figure 5) | tlag_MCC50 ([1]; at MCC50, figure 5) | MCCE ([1]; figure 5) | ME_24h (%) [1] [%] | ME_48h (%) [1] [%] | ME_72h (%) [1] [%] | CYP51 pIC50 (TcCYP51) | other results
1 | O=c1[nH]cnc2c([C@@H]3O[C@H](CO)[C@@H](O)[C@H]3O)n[nH]c12 [TCMDC-143083, Formycin B] | 45.1391 | 64.8809 | 83.4402 | 3.7 | 0.6 | 22.2526 | 28.621 | 68.9466 | 69.7149 | 48.0 | 4.0 | 48 | 4 | 60 | 4 | 0.6173 | 45.1 | 64.9 | 83.4 | < 4 | ME (maximum effect) in RoK assay (in words) [1]: ME positive for all times; cidality in the RoK assay (in words) [1]: cidal; Emax ([1]; Trypanosoma cruzi, H9c2, maximum percentage of parasite burden reduction reached by any concentration, 24 hours, read-out: ME 24h (maximum effect at 24 hours, intracellular amastigotes)): 48.3%; t50%_MCC50 ([1]; at MCC50): 60.0 h; tlag_MCC50 ([1]; at MCC50): 4.0 h; MCC50 ([1]; figure 5, in µM): 3.7037
2 | COc1ccc(CN(C)Cc2ccncc2)cc1-c1ccc(S(=O)(=O)NC2CCC2)s1.O=C(O)C(F)(F)F.O=C(O)C(F)(F)F [TCMDC-143084] | -28.7145 | 25.1182 | 44.4783 | – | 0.6 | -8.521 | -28.7145 | 25.1182 | 44.4783 | – | 24.0 | 72 | 24 | 72 | 72 | 0.6173 | -28.7 | 25.1 | 44.5 | 7.1 | MCC50 ([1]; figure 5): 50 µM; ME 24h (maximum effect at 24 hours, intracellular amastigotes) [1, 2]: -28.7145%
3 | CN(C)Cc1ccc(-c2ccc(S(=O)(=O)NCC3CCCO3)c(F)c2)cc1.O=C(O)C(F)(F)F (stereo not shown) [TCMDC-143085] | -52.4333 | 20.7837 | 66.9859 | 1.9 | 0.6 | -2.755 | -52.4333 | 10.0788 | 59.3639 | 72.0 | 24.0 | 72 | 24 | 72 | 24 | 0.6173 | -52.4 | 20.8 | 67.0 | 4.4 | t50%_MCC50 ([1]; at MCC50): 72.0 h; tlag_MCC50 ([1]; at MCC50): 24.0 h; MCC50 ([1]; figure 5, in µM): 1.852; ME 24h (maximum effect at 24 hours, intracellular amastigotes) [1, 2]: -52.4333%
4 | Cc1nc2nc(C)c(Cc3ccc(C(C)C)cc3)c(=O)n2[nH]1 [TCMDC-143087] | 30.2741 | 57.5973 | 64.9642 | 0.6 | 0.3 | 2.257 | 40.319 | 64.8982 | 80.3688 | 60.0 | 4.0 | 60 | 4 | 72 | 38 | 0.3099 | 30.3 | 57.6 | 65.0 | < 4 | ME (maximum effect) in RoK assay (in words) [1]: positive value of ME from 24 hours; tlag (in words) [1]: low values of tlag; ME / cidal effect at 72 hours ([1]; 72 hours): ≤ 65%; t50%_MCC50 ([1]; at MCC50): 72.0 h; tlag_MCC50 ([1]; at MCC50): 4.0 h; MCC50 ([1]; figure 5, in µM): 25.3086; ME 24h (maximum effect at 24 hours, intracellular amastigotes) [1, 2]: 41.0116%
